Test results taken from ChEMBL document CHEMBL4673222, “Discovery of a Bioactive Inhibitor with a New Scaffold for Cystathionine γ-Lyase” (J Med Chem, 2019).
Calls of active or inactive are those of the source. The calls are words filed in the database; no cut-off is given here.

Assays:
[1] = biological target: T1, Cystathionine gamma-lyase (Homo sapiens, UniProt P32929); experiment: Inhibition of human CSE using L-Cys as the substrate by tandem well based HTS assay
[2] = test system: Cystathionine gamma-lyase (Homo sapiens), P32929 [R119A]; experiment: Inhibition of human CSE R119A mutant expressed in HEK293T cells assessed as reduction in H2S contents at 200 to 500 uM by lead acetate assay; type: cell-based; settings: dose 200-500 µM
Homo sapiens [3] = organism: Homo sapiens; experiment: Selectivity index, ratio of IC50 for human CSE R119A mutant expressed in HEK293T cells to IC50 for wild type human CSE expressed in HEK293T cells; type: cell-based
[4] = biological target: T1, Cystathionine gamma-lyase; experiment: Effect on PLP interaction with human CSE assessed as effect on spectra of CSE-bound PLP
[5] = biological target: T1, Cystathionine gamma-lyase; experiment: Non-competitive inhibition of human CSE using varying levels of PLP and fixed L-Cys as substrate
Homo sapiens [6] = organism: Homo sapiens; experiment: Selectivity index, ratio of IC50 for human CBS to IC50 for human CSE
Homo sapiens [7] = organism: Homo sapiens; experiment: Selectivity index, ratio of IC50 for human CSE R119K mutant to IC50 for wild type human CSE
RAW264.7 = experiment: Toxicity in mouse RAW264.7 cells assessed as cell viability up to 100 uM incubated for 12 to 24 hrs by CellTiter96 aqueous one solution cell proliferation assay; type: cell-based; settings: time 12-24 hrs
Rattus norvegicus [8] = experiment: Reversal of hypotension in Sprague-Dawley rat model of hemorrhagic shock assessed as mean artery pressure level at 50 mg/kg, ip after 45 mins (reference value: 35.8 mmHg); type: functional; settings: 0.75 h
[9] = biological target: T1, Cystathionine gamma-lyase; experiment: Binding affinity to human CSE by ITC analysis
[10] = biological target: Cystathionine gamma-lyase (Homo sapiens, UniProt P32929, R119K); experiment: Inhibition of human CSE R119K mutant expressed in HEK293T cells assessed as reduction in H2S contents; type: cell-based
Homo sapiens [11] = organism: Homo sapiens; experiment: Selectivity index, ratio of Ki for human CSE R119K mutant to Ki for wild type human CSE
Homo sapiens [12] = organism: Homo sapiens; experiment: Selectivity index, ratio of IC50 for human CSE R62A mutant to IC50 for wild type human CSE
[13] = Binding affinity to H2S assessed as absorbing of released H2S up to 100 uM in presence of NaHS as H2S donor; settings: dose microM <=100
Rattus norvegicus [14] = experiment: Inhibition of CSE in Sprague-Dawley rat model of hemorrhagic shock assessed as increase in plasma H-cys level at 50 mg/kg, ip after 45 mins by ELISA; type: functional, organism-based
Homo sapiens [15] = organism: Homo sapiens; experiment: Selectivity index, ratio of Ki for human CSE R119A mutant to Ki for wild type human CSE
Homo sapiens [16] = organism: Homo sapiens; experiment: Selectivity index, ratio of IC50 for human CSE R119A mutant to IC50 for wild type human CSE
[17] = biological target: T1, Cystathionine gamma-lyase; experiment: Competitive inhibition of human CSE using varying levels of L-Cys as substrate and fixed PLP levels
Homo sapiens [18] = organism: Homo sapiens; experiment: Selectivity index, ratio of IC50 for human CSE Y114A mutant to IC50 for wild type human CSE
[19] = biological target: Cystathionine gamma-lyase (Mus musculus) (UniProt Q8VCN5); experiment: Inhibition of CSE in mouse RAW264.7 cells assessed as reduction in amount of released H2S level at 20 to 50 uM by lead acetate method; type: cell-based; settings: dose 20-50 µM
[20] = biological target: T1, Cystathionine gamma-lyase; experiment: Inhibition of human CSE by methylene blue method
Homo sapiens [21] = organism: Homo sapiens; experiment: Selectivity index, ratio of IC50 for human CSE Y114F mutant expressed in HEK293T cells to IC50 for wild type human CSE expressed in HEK293T cells; type: cell-based
[22] = biological target: T1, Cystathionine gamma-lyase; experiment: Inhibition of human CSE expressed in mouse RAW264.7 cells assessed as reduction in amount of released H2S level at 20 to 50 uM by lead acetate method; type: cell-based; settings: dose 20-50 µM
[23] = biological target: T1, Cystathionine gamma-lyase; experiment: Inhibition of human CSE using L-Cys as the substrate in presence of 0.025% Triton X-100 by tandem well based HTS assay
[24] = biological target: T2, Cystathionine beta-synthase (Homo sapiens, UniProt P35520); experiment: Inhibition of human CBS by methylene blue method
T2 sequence (P35520 whole entry): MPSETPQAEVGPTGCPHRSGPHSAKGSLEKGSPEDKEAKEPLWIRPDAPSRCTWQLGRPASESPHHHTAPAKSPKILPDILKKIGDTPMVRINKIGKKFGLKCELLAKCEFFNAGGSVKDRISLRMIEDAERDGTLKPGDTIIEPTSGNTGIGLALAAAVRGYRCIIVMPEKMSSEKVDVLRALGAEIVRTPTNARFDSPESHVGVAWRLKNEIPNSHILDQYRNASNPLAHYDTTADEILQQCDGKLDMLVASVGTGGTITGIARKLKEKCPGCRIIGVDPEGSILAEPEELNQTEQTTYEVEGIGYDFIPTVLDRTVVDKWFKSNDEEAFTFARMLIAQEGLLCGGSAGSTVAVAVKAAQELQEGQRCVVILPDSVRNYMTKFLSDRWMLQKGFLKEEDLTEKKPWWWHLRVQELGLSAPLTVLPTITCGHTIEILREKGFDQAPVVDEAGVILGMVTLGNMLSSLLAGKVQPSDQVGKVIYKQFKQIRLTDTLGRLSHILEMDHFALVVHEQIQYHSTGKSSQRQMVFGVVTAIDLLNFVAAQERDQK

Homo sapiens [25] = organism: Homo sapiens; experiment: Selectivity index, ratio of IC50 for human CSE R119K mutant expressed in HEK293T cells to IC50 for wild type human CSE expressed in HEK293T cells; type: cell-based
[26] = test system: Cystathionine gamma-lyase (Homo sapiens), P32929 [R119K]; experiment: Inhibition of human CSE R119K mutant expressed in HEK293T cells assessed as reduction in H2S contents at 200 to 500 uM by lead acetate assay; type: cell-based; settings: dose 200-500 µM
[27] = biological target: T1, Cystathionine gamma-lyase; experiment: Inhibition of wild type human CSE expressed in HEK293T cells assessed as reduction in H2S contents; type: cell-based
[28] = biological target: T2, Cystathionine beta-synthase; experiment: Inhibition of wild type human CBS expressed in HEK293T cells assessed as reduction in H2S contents; type: cell-based
Rattus norvegicus [29] = experiment: Inhibition of CSE in Sprague-Dawley rat model of hemorrhagic shock assessed as reduction in plasma H2S level at 50 mg/kg, ip after 45 mins by methylene blue dye based method; type: functional, organism-based
[30] = biological target: Cystathionine gamma-lyase (Homo sapiens, UniProt P32929, Y114F); experiment: Inhibition of human CSE Y114F mutant expressed in HEK293T cells assessed as reduction in H2S contents; type: cell-based
[31] = biological target: Cystathionine gamma-lyase (Mus musculus) (UniProt Q8VCN5); experiment: Potency index, ratio of inhibition activity of PAG to test compound for inhibition of CSE in mouse RAW264.7 cells assessed as reduction in amount of released H2S level by lead acetate method; type: cell-based
[32] = biological target: Cystathionine gamma-lyase (Mus musculus) (UniProt Q8VCN5); experiment: Inhibition of CSE in mouse RAW264.7 cells assessed as increase in levels of cellular H-cys level at 1 to 500 uM by ELISA; type: cell-based; settings: dose 1-500 µM
Homo sapiens [33] = organism: Homo sapiens; experiment: Selectivity index, ratio of IC50 for human CSE Y114F mutant to IC50 for wild type human CSE
[34] = biological target: T1, Cystathionine gamma-lyase; experiment: Inhibition of human CSE expressed in HEK293T cells assessed as reduction in H2S contents at 20 to 50 uM by lead acetate assay; type: cell-based; settings: dose 20-50 µM
[35] = biological target: Cystathionine gamma-lyase (Homo sapiens, UniProt P32929, R119A); experiment: Inhibition of human CSE R119A mutant expressed in HEK293T cells assessed as reduction in H2S contents; type: cell-based
[36] = biological target: T1, Cystathionine gamma-lyase; experiment: Non-covalent reversible inhibition of human CSE
[37] = biological target: T1, Cystathionine gamma-lyase; experiment: Inhibition of human CSE using H-Cys as the substrate by LC/MS/MS-based assay
Homo sapiens [38] = organism: Homo sapiens; experiment: Selectivity index, ratio of Ki for human CSE Y114F mutant to Ki for wild type human CSE
[39] = biological target: T2, Cystathionine beta-synthase; experiment: Inhibition of CBS (unknown origin) by AzMC based fluorescence assay
[40] = biological target: T1, Cystathionine gamma-lyase; experiment: Inhibition of human CSE using H-Cys as the substrate by tandem well based HTS assay
Homo sapiens [41] = organism: Homo sapiens; experiment: Selectivity index, ratio of IC50 for human CBS to IC50 for human DDC
HEK-293T = experiment: Toxicity in HEK293T cells assessed as cell viability up to 100 uM incubated for 12 to 24 hrs by CellTiter96 aqueous one solution cell proliferation assay; type: cell-based; settings: human, time 12-24 hrs
[42] = biological target: Cystathionine gamma-lyase (Mus musculus) (UniProt Q8VCN5); experiment: (§1) Inhibition of CSE in mouse RAW264.7 cells assessed as reduction in endogenous H2S level by AzMC probe based fluorescence assay; type: cell-based
[43] = biological target: Cystathionine gamma-lyase (Mus musculus, UniProt Q8VCN5); experiment: as §1; type: cell-based
[44] = biological target: T2, Cystathionine beta-synthase; experiment: Inhibition of CBS (unknown origin) by methylene blue method
[45] = biological target: T1, Cystathionine gamma-lyase; experiment: Inhibition of human CSE using L-Cys as the substrate in presence of 0.01% Triton X-100 by tandem well based HTS assay
[46] = test system: Cystathionine gamma-lyase (Homo sapiens), P32929 [Y114F]; experiment: Inhibition of human CSE Y114F mutant expressed in HEK293T cells assessed as reduction in H2S contents at 200 to 500 uM by lead acetate assay; type: cell-based; settings: dose 200-500 µM
Cystathionine gamma-lyase (Homo sapiens), P32929 [Y114F], sequence (P32929 whole entry Y114F): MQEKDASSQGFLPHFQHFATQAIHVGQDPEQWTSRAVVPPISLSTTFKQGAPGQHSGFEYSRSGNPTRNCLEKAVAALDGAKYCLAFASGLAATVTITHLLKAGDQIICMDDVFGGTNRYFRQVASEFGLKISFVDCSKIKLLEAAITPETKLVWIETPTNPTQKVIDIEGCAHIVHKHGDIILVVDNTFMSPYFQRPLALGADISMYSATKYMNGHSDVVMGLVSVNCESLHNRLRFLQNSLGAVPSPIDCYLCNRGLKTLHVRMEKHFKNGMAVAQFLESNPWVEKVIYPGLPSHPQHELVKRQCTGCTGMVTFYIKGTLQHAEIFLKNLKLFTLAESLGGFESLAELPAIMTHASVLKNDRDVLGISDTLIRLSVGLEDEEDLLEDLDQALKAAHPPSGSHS

Cystathionine gamma-lyase (Mus musculus), sequence (Q8VCN5 whole entry): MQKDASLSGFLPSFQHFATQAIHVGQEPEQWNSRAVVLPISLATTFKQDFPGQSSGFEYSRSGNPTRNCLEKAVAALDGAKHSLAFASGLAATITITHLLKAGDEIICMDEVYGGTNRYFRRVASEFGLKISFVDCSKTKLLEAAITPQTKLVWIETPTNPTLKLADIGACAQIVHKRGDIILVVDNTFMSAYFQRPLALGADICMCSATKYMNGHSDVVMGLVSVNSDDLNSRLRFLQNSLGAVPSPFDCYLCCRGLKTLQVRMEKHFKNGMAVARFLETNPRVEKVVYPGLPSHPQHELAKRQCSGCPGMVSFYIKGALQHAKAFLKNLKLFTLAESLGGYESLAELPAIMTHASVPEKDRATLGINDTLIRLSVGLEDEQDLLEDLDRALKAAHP
T1 sequence (P32929 whole entry): as the sequence (P32929 whole entry Y114F) above, with F114Y counted along it
Cystathionine gamma-lyase (Homo sapiens, UniProt P32929, Y114F), sequence (P32929 whole entry Y114F): as the sequence (P32929 whole entry Y114F) above
Cystathionine gamma-lyase (Mus musculus, UniProt Q8VCN5), sequence (Q8VCN5 whole entry): as the sequence (Q8VCN5 whole entry) above
Cystathionine gamma-lyase (Homo sapiens, UniProt P32929, R119K), sequence (P32929 whole entry R119K): as the sequence (P32929 whole entry Y114F) above, with F114Y, R119K counted along it
Cystathionine gamma-lyase (Homo sapiens), P32929 [R119K], sequence (P32929 whole entry R119K): as the sequence (P32929 whole entry Y114F) above, with F114Y, R119K counted along it
Cystathionine gamma-lyase (Homo sapiens), P32929 [R119A], sequence (P32929 whole entry R119A): as the sequence (P32929 whole entry Y114F) above, with F114Y, R119A counted along it
Cystathionine gamma-lyase (Homo sapiens, UniProt P32929, R119A), sequence (P32929 whole entry R119A): as the sequence (P32929 whole entry Y114F) above, with F114Y, R119A counted along it

## O=C1C(Cl)=C(NCCN2CCNCC2)C(=O)c2ccccc21
[1]
  IC50: < 50 µM

## O=CN/C=C\c1cc(O)ccc1O
[1]
  IC50: < 50 µM

## CC1=C/C(=C(\c2cc(C)c(O)c(C(=O)O)c2)c2c(Cl)cccc2Cl)C=C(C(=O)O)C1=O
[1]
  IC50: 155 µM

## Cc1ccc([S+]([O-])c2ccc([N+](=O)[O-])c3nonc23)cc1 (stereo not drawn)
[1]
  IC50: < 50 µM

## O=[N+]([O-])c1ccc(Sc2cccc[n+]2[O-])c2nonc12
[1]
  IC50: < 50 µM

## CC1=C/C(=C(\c2cc(C)c(O)c(C(=O)O)c2)c2c(Cl)ccc(S(=O)(=O)O)c2Cl)C=C(C(=O)O)C1=O
[1]
  IC50: 143 µM

## NC1=C(Br)C(=O)c2ncccc2C1=O
[1]
  IC50: < 50 µM

## O=C1c2ccccc2C(=O)c2sc(Nc3ccc(Cl)cc3)nc21
[1]
  IC50: < 50 µM

## O=C(O)C1=CC(=C(c2ccc(O)c(C(=O)O)c2)c2ccc(O)c(C(=O)O)c2)C=CC1=O [AURINTRICARBOXYLIC ACID]
[2]
  inhibition: inactive
Homo sapiens [3]
  Ratio IC50: 6
[4]
  Activity: inactive
[5]
  alphaKi: 4.2 µM
Homo sapiens [6]
  Ratio IC50: 137
Homo sapiens [7]
  Ratio IC50: 26
RAW264.7
  Activity: Non-Toxic
Rattus norvegicus [8]
  Activity: 65 mmHg
[9]
  Kd: 3.4 µM
[10]
  IC50: 245 µM
Homo sapiens [11]
  Ratio Ki: 40.5
Homo sapiens [12]
  Ratio IC50: > 10
[13]
  Activity: inactive
Rattus norvegicus [14]
  inhibition: Active
Homo sapiens [15]
  Ratio Ki: 52
Homo sapiens [16]
  Ratio IC50: 32
[17]
  Ki: 600 nM
Homo sapiens [18]
  Ratio IC50: > 10
[19]
  inhibition: Active
[20]
  IC50: 2600 nM
Homo sapiens [21]
  Ratio IC50: 6
[22]
  inhibition: Active
[23]
  IC50: 1800 nM
[24]
  IC50: 54.2 µM
Homo sapiens [25]
  Ratio IC50: 6
[26]
  inhibition: inactive
[27]
  IC50: 34.7 µM
  inhibition: Dose-dependent effect
[28]
  IC50: > 650 µM
Rattus norvegicus [29]
  inhibition: Active
[30]
  IC50: 283 µM
[31]
  Ratio: 8
[32]
  inhibition: Active
Homo sapiens [33]
  Ratio IC50: 29.6
[34]
  inhibition: Active
[35]
  IC50: 371 µM
[36]
  inhibition: Active
[37]
  IC50: 3.3 µM
  inhibition: Dose-dependent effect
Homo sapiens [38]
  Ratio Ki: 44.5
[39]
  IC50: 3 µM
[40]
  IC50: 1700 nM
Homo sapiens [41]
  Ratio IC50: 143
HEK-293T
  Activity: Non-Toxic
[42]
  inhibition: Dose-dependent effect
[43]
  IC50: 43.2 µM
[1]
  IC50: 0.6 µM
[44]
  IC50: 20 µM
[45]
  IC50: 1800 nM
[46]
  inhibition: inactive

## NC1=C(Cl)C(=O)c2ncccc2C1=O
[1]
  IC50: < 50 µM

## O=C1C(Cl)=C(N2CCN(C3=C(Cl)C(=O)c4ccccc4C3=O)CC2)C(=O)c2ccccc21
[1]
  IC50: < 50 µM

## Nc1ccc(Cc2ccc(NC3C(=O)c4ccccc4C(=O)C3Cl)cc2)cc1 (stereo not drawn)
[1]
  IC50: < 50 µM

## O=C(O)c1ccccc1O [SALICYLIC ACID]
[1]
  IC50: > 200 µM

## O=C(O)c1cc(/N=N/c2ccc(O)c(C(=O)O)c2)ccc1O [OLSALAZINE]
[1]
  IC50: > 200 µM
